Test results taken from PubChem BioAssay AID493013 (Southern Research Specialized Biocontainment Screening …, 2011).
Activity calls are given as the source filed them. The rule behind the calls is not given here.

test system: not listed separately; assay: mammalian cell cytotoxicity, dose response, cytotoxicity control, secondary assay, set 2 (AID 493013); details: mammalian cell line viability, cytotoxicity counter-screen; at 100 µM (top of the series)

Compound | viability
Cc1cc(C)c(OCC(=O)Nc2nc3ccccc3[nH]2)c(C)c1 | 85.7% (inactive)
Cc1cccc(C)c1OCC(=O)Nc1nc2ccccc2s1 | 84.5% (inactive)
Cc1ccc(OCC(=O)Nc2ccc(Cl)cc2)c(C)c1 | 93.6% (inactive)
O=C(OC(C(=O)Nc1ccc(Cl)cc1C(F)(F)F)c1ccccc1)C1=COCCO1 (centres undefined) | 72.7% (inactive)
Cc1cccnc1NC(=S)NC(=O)c1cncc(Br)c1 | 106% (inactive)
O=C(CC12CC3CC(CC(C3)C1)C2)NCc1ccc(F)cc1 | 86.5% (inactive)
Cc1ccc(OC(C)C(=O)Nc2ncccn2)c(C)c1 (centres undefined) | 86.1% (inactive)
COc1ccc2nc(NC(=O)COc3ccccc3C(C)C)sc2c1 | 93.8% (inactive)
Cc1onc(-c2c(Cl)cccc2Cl)c1/C(N)=N/OC(=O)C1CC1 | 102% (inactive)
S=C(Nc1ccccc1)Nc1ccc(Cl)cn1 | 97.2% (inactive)
CCc1ccc2nc(/N=C(\N)NC(=O)c3ccccc3)nc(C)c2c1 | 81.6% (inactive)
Cc1cc2cc(Cl)ccc2[nH]1 | 84.1% (inactive)
Cc1ccc(OCC(=O)Nc2nnn(C)n2)c(C)c1 | 85.2% (inactive)
Cc1cc2cc(F)ccc2[nH]1 | 95% (inactive)
N/C(=N\c1nc2ccccc2o1)NC(=O)c1ccccc1F | 96.4% (inactive)
Cc1cc2ccccc2[nH]1 | 100% (inactive)
O=C(COc1ccc2ccccc2c1)Nc1nc2ccccc2[nH]1 | 91.9% (inactive)
COC(=O)c1ccc2nc(NC(=O)COc3ccccc3)sc2c1 | 88.8% (inactive)
Cc1ccc(OCC(=O)Nc2nc3ccc(F)cc3s2)cc1 | 84.2% (inactive)
CC(=O)c1c(C)n(-c2ccccc2)c2ccc(OC(C)C)cc12 | 79.6% (inactive)

Compound | viability
CCOc1ccc2nc(NC(=O)Cc3ccc(OC)cc3)sc2c1 | 83.6% (inactive)
N/C(=N\c1nc2ccccc2o1)NC(=O)c1ccccc1Br | 84.6% (inactive)
c1ccc(OCc2nnc(-c3ccccc3)o2)cc1 | 72.5% (inactive)
O=C(Cc1ccccc1Cl)Nc1nc2ccccc2[nH]1 | 84.9% (inactive)
CC(=O)c1c(C)n(-c2cccc(Cl)c2)c2ccc(O)cc12 | 78.9% (inactive)
COc1ccc2nc(NC(=O)COc3ccccc3)sc2c1 | 83.9% (inactive)
Oc1ccc2[nH]ccc2c1 | 101% (inactive)
Cc1ccccc1OCC(=O)Nc1nnn(C)n1 | 87.8% (inactive)
CN(NC(=O)c1c(Cl)cccc1Cl)c1cccc(Cl)n1 | 79.9% (inactive)
COc1ccc2nc(NC(=O)COc3c(C)cc(C)cc3C)sc2c1 | 79.6% (inactive)
Cc1ccc(OCC(=O)Nc2nc3c(Cl)cccc3s2)cc1 | 97% (inactive)
CCOc1ccc(NC(=O)COc2ccc(C)cc2C)cc1 | 78.7% (inactive)
CCOc1ccc2c(c1)c(C(C)=O)c(C)n2Cc1ccco1 | 94.5% (inactive)
CCOc1ccc2nc(NC(=O)COc3ccc(OC)cc3)sc2c1 | 102% (inactive)
CCOc1ccc2nc(NC(=O)COc3ccc(F)cc3)sc2c1 | 96.4% (inactive)
O=C(COC(=O)C1CC1)c1c[nH]c2ccccc12 | 95.5% (inactive)
O=C(CSc1n[nH]c(=O)n1C1CC1)c1ccc2c(c1)OCCO2 | 94.5% (inactive)
O=C(O)CCC(=O)Nc1nc2ccccc2s1 | 98.8% (inactive)
Cc1ccccc1OCC(=O)Nc1ncn[nH]1 | 80.5% (inactive)
CC(=O)c1c(C)n(-c2ccccc2C)c2ccc(O)cc12 | 82.3% (inactive)

Compound | viability
COc1cccc(NC(=S)Nc2cc(C)cc(C)n2)c1 | 89.5% (inactive)
COc1ccc2nc(NC(=O)COc3ccc(Cl)cc3)sc2c1 | 92.1% (inactive)
Cc1cc(C)c(OCC(=O)Nc2nc3ccc(C)cc3s2)c(C)c1 | 87.7% (inactive)
CCOc1ccc2nc(NC(=O)COc3ccccc3)sc2c1 | 76.4% (inactive)
COc1ccc(C(=O)Nc2ccc3nc(N4CCCCC4)cc(C)c3c2)c(OC)c1 | 92% (inactive)
O=C(COC(=O)C1=COCCO1)Nc1ccc2c(c1)OCO2 | 89% (inactive)
COc1cccc(NC(=O)C2CC2)c1 | 102% (inactive)
Cc1cc2cc(O)ccc2[nH]1 | 105% (inactive)
Cc1ccc(OCC(=O)Nc2cccc3c(NC(=O)COc4ccc(C)cc4C)cccc23)c(C)c1 | 96.3% (inactive)
O=C(COc1ccccc1Cl)Nc1nc2ccccc2s1 | 73.1% (inactive)
CC(=O)c1c(C)n(-c2ccccc2)c2ccc(O)cc12 | 80.4% (inactive)
Cc1cc(C)c(OCC(=O)Nc2nc3ccccc3s2)c(Cl)c1 | 83.2% (inactive)
COc1ccc2c(c1)c(C(C)=O)c(C)n2-c1ccccc1 | 92.5% (inactive)
COc1ccc2nc(NC(=O)c3oc4ccccc4c3C)sc2c1 | 80.8% (inactive)
CC(=O)Nc1ccc2nc(NC(=O)Cc3ccccc3)sc2c1 | 82.2% (inactive)
O=C(Cc1csc(-c2ccccc2F)n1)Nc1nc2ccccc2[nH]1 | 88.2% (inactive)
Cc1ccccc1OCC(=O)Nc1ncccn1 | 100% (inactive)
CCCOc1ccc2c(c1)c(C(C)=O)c(C)n2-c1ccccc1 | 97.1% (inactive)
Cc1ccccc1OCC(=O)Nc1noc(-c2ccccc2)n1 | 96.4% (inactive)

test system: mammalian cell line viability, cytotoxicity counter-screen; assay: as above; details: not given

Compound | CC50
CCOc1ccc2nc(NC(=O)C3(c4ccccc4)CCCC3)sc2c1 | 62.3 µM
CCOc1ccc2c(c1)c(C(C)=O)c(C)n2-c1ccccc1Cl | 47.7 µM
CC(C)Cn1c2c(c(O)c(C(=O)Nc3nccs3)c1=O)CCCC2 | 78 µM
Cc1ccccc1OCC(=O)Nc1ccccc1N1CCCCC1 | 51 µM
COc1ccc2nc(NC(=O)C(C)Oc3ccccc3)sc2c1 (centres undefined) | 87.7 µM
Cc1ccc2oc(/N=C(\N)NC(=O)c3ccccc3)nc2c1 | 5.79 µM
CC(=O)Nc1ccc2nc(NC(=O)COc3ccccc3)sc2c1 | 49.8 µM
CCOc1ccc2nc(NC(=O)COc3ccc(Cl)c(C)c3)sc2c1 | 38.6 µM
CCOC(=O)c1cnc2cc(-c3ccc(C(C)(C)C)cc3)nn2c1N | 74.6 µM
CCC(CC)c1nnc(NC(=O)c2ccc(N3CCCCC3)c([N+](=O)[O-])c2)s1 | 41.3 µM
N/C(=N\c1nc2ccccc2o1)NC(=O)c1ccccc1 | 7.4 µM
CC(C)(Oc1ccc(Cl)cc1)C(=O)Nc1nc2ccccc2s1 | 72.3 µM
OCCCc1cn(-c2ccccc2)c2ccccc12 | 90 µM
Cc1ccccc1C(=O)Nc1nc2ccccc2[nH]1 | 71.4 µM
O=C(COc1cccc2ccccc12)Nc1nc2ccccc2s1 | 77.7 µM
COc1ccccc1C(=O)N/C(N)=N/c1nc2ccccc2o1 | 16.6 µM
c1ccc(Nc2ncnc3c2oc2ccccc23)cc1 | 76.9 µM
COc1ccc2nc(NC(=O)COc3ccc(C)cc3)sc2c1 | 29.8 µM
COC(=O)c1sc(-c2ccc(C(C)(C)C)cc2)cc1NC(=O)CCC(=O)O | 64.7 µM
Cc1c(OCc2ccc(C(=O)O)cc2)ccc2c(-c3ccccc3)cc(=O)oc12 | 51.8 µM

Compound | CC50
O=C(Nc1nc2ccccc2[nH]1)c1cc2cc(Br)ccc2o1 | 11.5 µM
Cc1ccccc1OCC(=O)Nc1ccccc1-c1ccccc1 | 77 µM
O=C(COc1ccc2c3c(c(=O)oc2c1)CCC3)Nc1nc2ccccc2[nH]1 | 23.4 µM
CCOc1ccc2nc(NC(=O)C(C)Oc3ccccc3F)sc2c1 (centres undefined) | 67.7 µM
O=C(Nc1ccccc1)Nc1csc2ccccc12 | 31.9 µM
Cc1ccc2sc(NC(=O)COc3ccccc3)nc2c1C | 20.2 µM
CC(Oc1ccc(Cl)cc1)C(=O)Nc1nc2ccccc2s1 (centres undefined) | 46.4 µM
O=C(COc1ccc(Cl)cc1)Nc1nc2ccc(F)cc2s1 | 57.2 µM
COC(=O)c1c(C)n(-c2ccccc2)c2ccc(O)cc12 | 61.3 µM
COc1cccc(-c2ccc(-c3noc(-c4ccccc4F)n3)c(OC)n2)c1 | 46.7 µM
N/C(=N\c1nc2ccccc2o1)NC(=O)c1ccc(F)cc1 | 12.5 µM
O=C(Nc1nc2ccccc2[nH]1)c1ccc(Cl)c(Cl)c1 | 83.6 µM
O=C(CCS(=O)(=O)c1ccc(F)cc1)Nc1nnc(-c2cccs2)o1 | 41.6 µM
Cc1ccc(OCC(=O)Nc2ccc3c4c(cccc24)CC3)c(C)c1 | 27.2 µM
CCOc1ccc2c(c1)c(C(C)=O)c(C)n2-c1ccccc1 | 94.5 µM
O=C(COc1ccccc1)Nc1nc2ccccc2s1 | 66.7 µM
COc1ccc(Cl)cc1C(=O)Nc1nc2ccccc2[nH]1 | 25.4 µM
N/C(=N\c1nc2cc(Cl)ccc2o1)NC(=O)c1ccccc1 | 14.5 µM
N/C(=N\c1nc2ccccc2o1)NC(=O)COc1ccc2ccccc2c1 | 37.3 µM
CCCN1CC(O)=C(c2nc3ccccc3s2)C1=N | 90.5 µM
